Test results published in patent US9427398B2, “Parenteral solutions containing metolazone” (Academic Pharmaceuticals Incorporated, priority 2008, dated 2016).

Experiments:
Sprague-Dawley male rats = assay: Diuretic action of parenteral formulations, intraperitoneal administration in rats (24 h urine volume and Na+); format: in vivo, rat; conditions: for urine output: 24 h urine, n=6, mean±SD; for urine volume voided over 24 hours compared with placebo: intraperitoneal, furosemide 2, 4, 6 mg/kg (P≦0.01), metolazone 2 mg/kg in 2 different formulations
Experimental: Sprague-Dawley male rats (400 to 500 g) were used for the in vivo experiments. The rats were housed at a controlled temperature (22° C.), fed regularly and had free access to water. Rats were divided into 7 groups with 6 animals per group for the purposes of the study. The rats were deprived of food and water for 24 hours before beginning the study. After this fasting period, normal saline ([…]) was given by oral route. […] All rats were placed in metabolic cages for urine collection. Urine was collected for 24 hours after injection, and the volume measured and the (Na^+) concentration in urine were determined using an ion-specific electrode method, NOVA CRT (NOVA Biomedical, Waltham, Mass.) All data are presented as mean±SD of n observations. For statistical comparison, one-way analysis or variance ANOVA or Student t test was employed. A two-sided P value≦0.05 was considered significant.

[1] = cited from earlier work

Row | Compound | urine output (Sprague-Dawley male rats; 2 mg/kg intraperitoneally) | urine output (Sprague-Dawley male rats; 4 mg/kg intraperitoneally) | urine output (Sprague-Dawley male rats; 6 mg/kg intraperitoneally) | urine volume voided over 24 hours compared with placebo (Sprague-Dawley male rats) | solubility in water [1]
1 | NS(=O)(=O)c1cc(C(=O)O)c(NCc2ccco2)cc1Cl [Furosemide, furosemide] | 9 ± 1 mL/day | 14 ± 2 mL/day | 17 ± 2 mL/day | significantly greater | 
2 | Cc1ccccc1N1C(=O)c2cc(S(N)(=O)=O)c(Cl)cc2NC1C (stereo not shown) [Metolazone, 7 chloro-1,2,3,4-tetrahydro-2-methyl-3-(-2-methylphenyl)-4-oxo-6-quinazoline sulfonamide] | 16 ± 3 mL/day |  |  | greater in each instance | sparingly soluble
